Consider nine compounds from the NIST ThermoML archive (doi:10.1016/j.jct.2012.08.010).

Each structure is given as a SMILES string. Numbers after ± are expanded uncertainties.

The nature of data set [1]: refractive index (Na D-line) (dimensionless). To be noted: 101.33 kPa, Liquid, Standard Abbe refractometry.
The conditions of data set [2]: 101 kPa, Liquid, Vibrating tube method.
Data set [3] can be described thus: refractive index (Na D-line) (dimensionless); φn = volume fraction of the nth substance listed. The note with it: 101 kPa, Liquid, Standard Abbe refractometry, φ2 = 0.
Data set [4] in a line: xn = mol fraction of the nth substance listed. To be noted: 101 kPa, Liquid, Vibrating tube method, x2 = 0.

The term refractive index denotes a measure of how strongly the sample bends light. As usually defined, the mass density is mass per unit of volume. For `Cc1cccc(C)c1` [1,3-dimethylbenzene], the refractive index in data set [1] (288.15 K) is given as 1.49969 ± 0.00031; in data set [1] (298.15 K) it was 1.49444 ± 0.00031; in data set [1] (308.15 K), 1.48894 ± 0.00031; in data set [1] (318.15 K) it was 1.48355 ± 0.00031; in data set [1] (328.15 K) it was 1.4782 ± 0.0003. In addition, the mass density in data set [2] (288.15 K) worked out at 868.39 ± 0.13 kg/m3; in data set [2] (298.15 K), 859.83 ± 0.13 kg/m3; in data set [2] (308.15 K) it was 851.25 ± 0.13 kg/m3; in data set [2] (318.15 K) it was 842.58 ± 0.13 kg/m3; in data set [2] (328.15 K) it was 833.85 ± 0.14 kg/m3.

As to `Cc1cccc(C)c1` [1,3-dimethylbenzene] + C=C[Si]1(C)O[Si](C)(C=C)O[Si](C)(C=C)O[Si](C)(C=C)O1, the refractive index in data set [3] (288.15 K) turned out to be 1.49969 ± 0.00031; in data set [3] (298.15 K), 1.49444 ± 0.00031; in data set [3] (308.15 K) it was 1.48894 ± 0.00031; in data set [3] (318.15 K), 1.48355 ± 0.00031; in data set [3] (328.15 K), 1.4782 ± 0.0003. Further, the mass density was 868.39 ± 0.13 kg/m3 in data set [4] (288.15 K); 859.83 ± 0.13 kg/m3 in data set [4] (298.15 K); 851.25 ± 0.13 kg/m3 in data set [4] (308.15 K); 842.58 ± 0.13 kg/m3 in data set [4] (318.15 K); 833.85 ± 0.14 kg/m3 in data set [4] (328.15 K).

For the compound `C=C[Si]1(C)O[Si](C)(C=C)O[Si](C)(C=C)O[Si](C)(C=C)O1` (stereo not given) [2,4,6,8-tetramethyl-2,4,6,8-tetravinylcycloterasiloxane], the refractive index worked out at 1.43674 ± 0.00033 in data set [1] (288.15 K); 1.43202 ± 0.00033 in data set [1] (298.15 K); 1.4273 ± 0.0003 in data set [1] (308.15 K); 1.42257 ± 0.00033 in data set [1] (318.15 K); 1.41785 ± 0.00033 in data set [1] (328.15 K). Further, the mass density in data set [2] (288.15 K) is 992.74 ± 0.13 kg/m3; in data set [2] (298.15 K), 982.54 ± 0.13 kg/m3; in data set [2] (308.15 K), 972.34 ± 0.13 kg/m3; in data set [2] (318.15 K) it was 962.14 ± 0.13 kg/m3; in data set [2] (328.15 K) it was 951.94 ± 0.13 kg/m3.

For `Cc1ccc(C)cc1` [1,4-dimethylbenzene] + C=C[Si]1(C)O[Si](C)(C=C)O[Si](C)(C=C)O[Si](C)(C=C)O1, the refractive index in data set [3] (288.15 K) worked out at 1.49836 ± 0.00031; in data set [3] (298.15 K), 1.49298 ± 0.00031; in data set [3] (308.15 K), 1.48743 ± 0.00031; in data set [3] (318.15 K), 1.48202 ± 0.00031; in data set [3] (328.15 K) it was 1.47654 ± 0.00031. Besides, the mass density in data set [4] (288.15 K) is given as 865.3 ± 0.1 kg/m3; in data set [4] (298.15 K), 856.62 ± 0.13 kg/m3; in data set [4] (308.15 K), 847.97 ± 0.13 kg/m3; in data set [4] (318.15 K) it was 839.21 ± 0.13 kg/m3; in data set [4] (328.15 K), 830.39 ± 0.14 kg/m3.

Consider `CCc1ccccc1` [ethylbenzene] + C=C[Si]1(C)O[Si](C)(C=C)O[Si](C)(C=C)O[Si](C)(C=C)O1, for which the refractive index in data set [3] (288.15 K) was 1.49834 ± 0.00031; in data set [3] (298.15 K), 1.49297 ± 0.00031; in data set [3] (308.15 K), 1.48747 ± 0.00031; in data set [3] (318.15 K), 1.48202 ± 0.00031; in data set [3] (328.15 K), 1.47649 ± 0.00031. For the same compound, the mass density in data set [4] (288.15 K) amounted to 871.31 ± 0.13 kg/m3; in data set [4] (298.15 K), 862.55 ± 0.13 kg/m3; in data set [4] (308.15 K), 853.75 ± 0.13 kg/m3; in data set [4] (318.15 K), 844.87 ± 0.13 kg/m3; in data set [4] (328.15 K) it was 835.93 ± 0.13 kg/m3.

Take `CCc1ccccc1` [ethylbenzene]: the refractive index in data set [1] (288.15 K) turned out to be 1.49834 ± 0.00031; in data set [1] (298.15 K), 1.49297 ± 0.00031; in data set [1] (308.15 K) it was 1.48747 ± 0.00031; in data set [1] (318.15 K), 1.48202 ± 0.00031; in data set [1] (328.15 K) it was 1.47649 ± 0.00031. Also, the mass density in data set [2] (288.15 K) is 871.31 ± 0.13 kg/m3; in data set [2] (298.15 K), 862.55 ± 0.13 kg/m3; in data set [2] (308.15 K), 853.75 ± 0.13 kg/m3; in data set [2] (318.15 K) it was 844.87 ± 0.13 kg/m3; in data set [2] (328.15 K), 835.93 ± 0.13 kg/m3.

With `Cc1ccc(C)cc1` [1,4-dimethylbenzene], the refractive index in data set [1] (288.15 K) amounted to 1.49836 ± 0.00031; in data set [1] (298.15 K), 1.49298 ± 0.00031; in data set [1] (308.15 K), 1.48743 ± 0.00031; in data set [1] (318.15 K), 1.48202 ± 0.00031; in data set [1] (328.15 K), 1.47654 ± 0.00031. In addition, the mass density in data set [2] (288.15 K) stood at 865.3 ± 0.1 kg/m3; in data set [2] (298.15 K), 856.62 ± 0.13 kg/m3; in data set [2] (308.15 K), 847.97 ± 0.13 kg/m3; in data set [2] (318.15 K) it was 839.21 ± 0.13 kg/m3; in data set [2] (328.15 K) it was 830.39 ± 0.14 kg/m3.

As for `Cc1ccccc1C` [1,2-dimethylbenzene] + C=C[Si]1(C)O[Si](C)(C=C)O[Si](C)(C=C)O[Si](C)(C=C)O1, the refractive index is 1.50775 ± 0.00031 in data set [3] (288.15 K); 1.50257 ± 0.00031 in data set [3] (298.15 K); 1.49724 ± 0.00031 in data set [3] (308.15 K); 1.49201 ± 0.00031 in data set [3] (318.15 K); 1.48661 ± 0.00031 in data set [3] (328.15 K). Moreover, the mass density in data set [4] (288.15 K) was 884.07 ± 0.12 kg/m3; in data set [4] (298.15 K) it was 875.67 ± 0.13 kg/m3; in data set [4] (308.15 K), 867.3 ± 0.1 kg/m3; in data set [4] (318.15 K), 858.81 ± 0.13 kg/m3; in data set [4] (328.15 K) it was 850.24 ± 0.13 kg/m3.

With `Cc1ccccc1C` [1,2-dimethylbenzene], the refractive index in data set [1] (288.15 K) amounted to 1.50775 ± 0.00031; in data set [1] (298.15 K), 1.50257 ± 0.00031; in data set [1] (308.15 K), 1.49724 ± 0.00031; in data set [1] (318.15 K), 1.49201 ± 0.00031; in data set [1] (328.15 K), 1.48661 ± 0.00031. Moreover, the mass density in data set [2] (288.15 K) stood at 884.07 ± 0.12 kg/m3; in data set [2] (298.15 K), 875.67 ± 0.13 kg/m3; in data set [2] (308.15 K), 867.3 ± 0.1 kg/m3; in data set [2] (318.15 K) it was 858.81 ± 0.13 kg/m3; in data set [2] (328.15 K), 850.24 ± 0.13 kg/m3.
